In ChEMBL document CHEMBL5143555, “Potentiating the intracellular killing of Staphylococcus aureus by dihydroquinazoline analogues as NorA efflux pump inhibitor” (Bioorg Med Chem, 2022):
In brackets after ≈: the same amount, converted by molar mass.

Experiments:
[1] = test system: Staphylococcus aureus; experiment: Antibacterial activity against Staphylococcus aureus 1199B measured after 24 hrs by Muller Hinton broth based MTT assay; format: functional
[2] = test system: Staphylococcus aureus; experiment: Antibacterial activity against Staphylococcus aureus 1199 measured after 24 hrs by Muller Hinton broth based MTT assay; format: functional
[3] = test system: Staphylococcus aureus; experiment: Antibacterial activity against Staphylococcus aureus K1758 measured after 24 hrs by Muller Hinton broth based MTT assay; format: functional
[4] = molecular target: T1, Quinolone resistance protein NorA (Staphylococcus aureus) (UniProt P0A0J7); experiment: Inhibition of NorA in Staphylococcus aureus 1199B assessed as accumulation of norfloxacin at 3.9 ug/ml by measuring fluorescence intensity measured at 5 mins interval for 40 mins by fluorescence spectrophotometry; conditions: dose 3.9 µg/ml
T1 sequence (whole entry): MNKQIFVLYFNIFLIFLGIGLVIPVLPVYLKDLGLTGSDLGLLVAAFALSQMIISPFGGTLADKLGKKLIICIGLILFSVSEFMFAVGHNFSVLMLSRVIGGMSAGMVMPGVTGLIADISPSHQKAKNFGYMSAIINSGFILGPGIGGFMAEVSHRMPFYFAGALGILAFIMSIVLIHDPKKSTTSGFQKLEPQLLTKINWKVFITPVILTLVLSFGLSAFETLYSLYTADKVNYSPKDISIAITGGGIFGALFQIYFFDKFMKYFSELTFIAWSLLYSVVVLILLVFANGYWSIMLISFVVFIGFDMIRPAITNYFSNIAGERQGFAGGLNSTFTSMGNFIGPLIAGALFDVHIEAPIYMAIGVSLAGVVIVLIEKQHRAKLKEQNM

[5] = molecular target: T1, Quinolone resistance protein NorA (Staphylococcus aureus); experiment: Inhibition of NorA in Staphylococcus aureus 1199B assessed as potentiation of norfloxacin-induced antibacterial activity by measuring Norfloxacin MIC at sub MIC
[6] = molecular target: T1, Quinolone resistance protein NorA (Staphylococcus aureus); experiment: Inhibition of NorA in Staphylococcus aureus 1199B assessed as potentiation of norfloxacin-induced antibacterial activity by measuring Norfloxacin MIC at sub MIC relative to norfloxacin MIC alone
[7] = molecular target: T1, Quinolone resistance protein NorA (Staphylococcus aureus); experiment: Inhibition of NorA in Staphylococcus aureus 1199B assessed as potentiation of norfloxacin-induced antibacterial activity by measuring fractional inhibitory concentration
[8] = molecular target: T1, Quinolone resistance protein NorA (Staphylococcus aureus); experiment: Inhibition of NorA in Staphylococcus aureus 1199B assessed as potentiation of ethidium bromide-induced antibacterial activity by measuring ethidium bromide MIC at sub MIC
[9] = molecular target: T1, Quinolone resistance protein NorA (Staphylococcus aureus); experiment: Inhibition of NorA in Staphylococcus aureus 1199B assessed as potentiation of ethidium bromide-induced antibacterial activity by measuring ethidium bromide MIC at sub MIC relative to ethidium bromide MIC alone
[10] = molecular target: T1, Quinolone resistance protein NorA (Staphylococcus aureus); experiment: Inhibition of NorA in Staphylococcus aureus 1199B assessed as potentiation of ethidium bromide-induced antibacterial activity by measuring fractional inhibitory concentration
[11] = molecular target: T1, Quinolone resistance protein NorA (Staphylococcus aureus); experiment: Inhibition of NorA in Staphylococcus aureus 1199B assessed as potentiation of 3.1 ug/mL norfloxacin-induced bactericidal activity by measuring log reduction in bacterial count at 7.8 ug/mL measured after 24 hrs by time-kill kinetics assay; conditions: dose 7.8 µg/ml
[12] = Cytotoxicity against kidney epithelial cells (unknown origin) assessed as cell viability at 50 ug/mL measured after 24 hrs by alamar blue assay relative to control; format: toxicity, cell-based, Fetal kidney cell; conditions: at 50 µg/mL, read-out: Activity
[13] = molecular target: T1, Quinolone resistance protein NorA (Staphylococcus aureus); experiment: Inhibition of NorA in Staphylococcus aureus 1199B assessed as accumulation of ethidium bromide at 3.9 ug/ml by measuring fluorescence intensity measured at 5 mins interval for 40 mins by fluorescence spectrophotometry; conditions: dose 3.9 µg/ml

SMILES	MIC [1]	MIC [2]	MIC [3]	other results
CN(C)[C@@H]1C(O)=C(C(N)=O)C(=O)[C@@]2(O)C(O)=C3C(=O)c4c(O)cccc4[C@@](C)(O)[C@H]3C[C@@H]12 [TETRACYCLINE]	0.42 µg/mL (≈ 0.945 µM)	0.02 µg/mL (≈ 0.045 µM)	0.1 µg/mL (≈ 0.225 µM)	–
c1ccc(C2=NC(c3ccco3)Nc3ccccc32)cc1 (stereo unspecified)	500 µg/mL (≈ 1820 µM)	125 µg/mL (≈ 456 µM)	250 µg/mL (≈ 911 µM)	–
CN1c2ccc(Cl)cc2C(c2ccccc2)=NC1c1ccc([N+](=O)[O-])cc1 (stereo unspecified)	250 µg/mL (≈ 662 µM)	125 µg/mL (≈ 331 µM)	250 µg/mL (≈ 662 µM)	Flu intensity [4]: 573; MIC [5]: 6.2 µg/mL; fold change (FC) [6]: 8; fractional inhibitory concentration index (FICI) [7]: 0.141; MIC [8]: 6.2 µg/mL; fold change (FC) [9]: 8; fractional inhibitory concentration index (FICI) [10]: 0.25; Activity [11]: > 3 log10CFU/ml; viability at 24 h, 50 ug/mL [12]: 83.1%; Flu intensity [13]: 100
Cc1onc(-c2ccccc2)c1C(=O)N[C@@H]1C(=O)N2[C@@H]1SC(C)(C)[C@@H]2C(=O)O [OXACILLIN]	0.42 µg/mL (≈ 1.05 µM)	0.1 µg/mL (≈ 0.249 µM)	0.1 µg/mL (≈ 0.249 µM)	–
O=[N+]([O-])c1ccc2c(c1)C(c1ccccc1)=NC(c1ccccc1)N2 (stereo unspecified)	500 µg/mL (≈ 1520 µM)	125 µg/mL (≈ 380 µM)	250 µg/mL (≈ 759 µM)	–
CO[C@H]1/C=C/O[C@@]2(C)Oc3c(C)c(O)c4c(O)c(c(/C=N/N5CCN(C)CC5)c(O)c4c3C2=O)NC(=O)/C(C)=C\C=C\[C@H](C)[C@H](O)[C@@H](C)[C@@H](O)[C@@H](C)[C@H](OC(C)=O)[C@@H]1C [RIFAMPIN]	0.21 µg/mL (≈ 0.255 µM)	0.1 µg/mL (≈ 0.122 µM)	0.1 µg/mL (≈ 0.122 µM)	–
O=[N+]([O-])c1ccc(C2N=C(c3ccccc3)c3ccccc3N2)cc1 (stereo unspecified)	> 1000 µg/mL	125 µg/mL (≈ 380 µM)	250 µg/mL (≈ 759 µM)	–
O=C(O)c1cn(C2CC2)c2cc(N3CCNCC3)c(F)cc2c1=O [CIPROFLOXACIN]	0.21 µg/mL (≈ 0.634 µM)	0.05 µg/mL (≈ 0.151 µM)	0.05 µg/mL (≈ 0.151 µM)	–
CC1(C)S[C@@H]2[C@H](NC(=O)[C@H](N)c3ccc(O)cc3)C(=O)N2[C@H]1C(=O)O [AMOXICILLIN]	0.42 µg/mL (≈ 1.15 µM)	0.05 µg/mL (≈ 0.137 µM)	0.1 µg/mL (≈ 0.274 µM)	–
CC1(C)S[C@@H]2[C@H](NC(=O)[C@H](N)c3ccccc3)C(=O)N2[C@H]1C(=O)O [AMPICILLIN]	0.42 µg/mL (≈ 1.2 µM)	0.05 µg/mL (≈ 0.143 µM)	0.1 µg/mL (≈ 0.286 µM)	–
Fc1ccccc1C1=NC(c2ccc(Br)cc2)Nc2ccc(Cl)cc21 (stereo unspecified)	> 1000 µg/mL	125 µg/mL (≈ 301 µM)	250 µg/mL (≈ 601 µM)	–
Fc1ccccc1C1=NC(c2ccccc2)Nc2ccc(Cl)cc21 (stereo unspecified)	500 µg/mL (≈ 1480 µM)	62.5 µg/mL (≈ 186 µM)	250 µg/mL (≈ 742 µM)	–
